Results reported in patent US10927125B2, “Substituted cinnolines as inhibitors of KRAS G12C” (Araxes Pharma LLC, priority 2013, dated 2021).

Molecular target: T1, KRAS G12C 1-169, his-tagged protein, GDP-loaded (Homo sapiens, UniProt P01116, G12C)
T1 construct: KRAS G12C 1-169, his-tagged protein, GDP-loaded
Experiment: Biochemical assay: covalent binding of compounds to KRAS G12C, analysed by mass spectrometry
Conditions: binding measured at 30 min (compounds 247-375)
Description: Compounds were tested for activity as follows:
Compounds were diluted to 50× final test concentration in DMSO in 96-well storage plates. […] Reactions were mixed carefully and thoroughly by pipetting up/down with a 200 μl multi-channel pipettor. The plate was sealed well with aluminum plate seal, and stored in drawer at room temperature for 30 min, 2 hour or 24 hrs. 51 μl of 2% formic acid (Fisher cat # A117) in DI H2O was then added to each well followed by mixing with a pipette. The plate was then resealed with aluminum seal and stored on dry ice until analyzed as described below.
The above described assays were analyzed by mass spectrometry according to the following procedure:
The MS instrument is set to positive polarity, 2 GHz resolution, and low mass (1700) mode and allowed to equilibrate for 30 minutes. The instrument is then calibrated, switched to acquisition mode and the appropriate method loaded.
After another 30 minute equilibration time, a blank batch (i.e., buffer) is run to ensure equipment is operating properly. The samples are thawed at 37° C. for 10 minutes, briefly centrifuged, and transfer to the bench top. Wells A1 and H12 are spiked with 1 uL 500 uM internal standard peptide, and the plates centrifuged at 2000×g for 5 minutes. The method is then run and masses of each individual well recorded.
The masses (for which integration data is desired) for each well are pasted into the platemap and exported from the analysis. Masses for the internal standards are exported as well. The data at 50 ppm is extracted for the +19 charge state, and identity of well A1 is assigned using the internal standard spike and integrated. Peak data is exported as a TOF list and the above steps are repeated individually, for the +20, 21, 22, 23, 24, and 25 charge states.

T1 sequence (P01116 1-169 isoform P01116-2 G12C): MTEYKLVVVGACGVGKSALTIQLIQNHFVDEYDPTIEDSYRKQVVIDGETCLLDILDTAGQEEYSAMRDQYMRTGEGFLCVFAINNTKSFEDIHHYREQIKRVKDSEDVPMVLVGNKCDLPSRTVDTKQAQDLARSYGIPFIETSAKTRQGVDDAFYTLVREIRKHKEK

Compound | Binding %
C=CC(=O)N1CCN(c2ncnc3c(F)c(-c4cc(O)cc5ccccc45)c(Cl)cc23)CC1CO (centres unmarked) [Compound 256, 1-(4-(6-chloro-8-fluoro-7-(3-hydroxynaphthalen-1-yl)quinazolin-4-yl)-2-(hydroxymethyl)piperazin-1-yl)prop-2-en-1-one] | +++ (+++ indicates binding activity greater than 50% and up to 75%)
C=CC(=O)N1CCN(c2ncnc3cc(-c4cc(C)cc5[nH]ncc45)c(Cl)cc23)CC1 [Compound 262, 1-(4-(6-chloro-7-(6-methyl-1H-indazol-4-yl)quinazolin-4-yl)piperazin-1-yl)prop-2-en-1-one] | + (+ indicates binding activity from 5% to 25%)
C=CC(=O)N1CCN(c2nc(NC3CCN(CC(F)(F)F)C3)nc3c(F)c(-c4c(C)ccc5[nH]ncc45)c(Cl)cc23)CC1 (centres unmarked) [Compound 354, 1-(4-(6-chloro-8-fluoro-7-(5-methyl-1H-indazol-4-yl)-2-(1-(2,2,2-trifluoroethyl)pyrrolidin-3-ylamino)quinazolin-4-yl)piperazin-1-yl)prop-2-en-1-one] | ++++ (++++ indicates binding activity greater than 75%)
C=CC(=O)N1CCN(c2nc(OCCNC(C)=O)nc3c(F)c(-c4c(C)ccc5[nH]ncc45)c(Cl)cc23)CC1 [Compound 366, N-(2-(4-(4-acryloylpiperazin-1-yl)-6-chloro-8-fluoro-7-(5-methyl-1H-indazol-4-yl)quinazolin-2-yloxy)ethyl)acetamide] | ++++ (++++ indicates binding activity greater than 75%)
C=CC(=O)N1CCN(c2nc(OCCN3CCN(C)CC3)nc3c(F)c(-c4c(C)ccc5[nH]ncc45)c(Cl)cc23)CC1 [Compound 373, 1-(4-(6-chloro-8-fluoro-7-(5-methyl-1H-indazol-4-yl)-2-(2-(4-methylpiperazin-1-yl)ethoxy)quinazolin-4-yl)piperazin-1-yl)prop-2-en-1-one] | +++ (+++ indicates binding activity greater than 50% and up to 75%)
C=CC(=O)N1CCN(c2nc(NCC(F)(F)F)nc3c(F)c(-c4c(C)ccc5[nH]ncc45)c(Cl)cc23)CC1 [Compound 356, 1-(4-(6-chloro-8-fluoro-7-(5-methyl-1H-indazol-4-yl)-2-(2,2,2-trifluoroethylamino)quinazolin-4-yl)piperazin-1-yl)prop-2-en-1-one] | +++ (+++ indicates binding activity greater than 50% and up to 75%)
C=CC(=O)N1CCN(c2nc(N(C)CCN(C)C)nc3c(F)c(-c4cc(O)cc5ccccc45)c(Cl)cc23)CC1 [Compound 361, 1-(4-(6-chloro-2-((2-(dimethylamino)ethyl)(meth-yl)amino)-8-fluoro-7-(3-hydroxynaphthalen-1-yl)quinazolin-4-yl)piperazin-1-yl)prop-2-en-1-one] | ++++ (++++ indicates binding activity greater than 75%)
C=CC(=O)N1CCN(c2ncnc3c(F)c(-c4c(F)cccc4CN(C)C)c(Cl)cc23)CC1 [Compound 362, 1-(4-(6-chloro-7-(2-((dimethylamino)methyl)-6-fluorophenyl)-8-fluoroquinazolin-4-yl)piperazin-1-yl)prop-2-en-1-one] | ++ (++ indicates binding activity greater than 25% and up to 50%)
C=CC(=O)N1CCN(c2nc(OCCN(C)C)nc3c(F)c(-c4c(C)ccc5[nH]ncc45)c(Cl)cc23)CC1C (centres unmarked) [Compound 367, 1-(4-(6-chloro-2-(2-(dimethylamino)ethoxy)-8-fluoro-7-(5-methyl-1H-indazol-4-yl)quinazolin-4-yl)-2-methylpiperazin-1-yl)prop-2-en-1-one] | ++++ (++++ indicates binding activity greater than 75%)
C/C=C/C(=O)N1CCN(c2ncnc3c(F)c(-c4cc(O)cc5ccccc45)c(Cl)cc23)CC1 [Compound 328, (E)-1-(4-(6-chloro-8-fluoro-7-(3-hydroxynaphthalen-1-yl)quinazolin-4-yl)piperazin-1-yl)but-2-en-1-one] | + (+ indicates binding activity from 5% to 25%)
C=CC(=O)N1CCN(c2ncnc3c(F)c(-c4c(F)ccc5c(C)n[nH]c45)c(Cl)cc23)CC1 [Compound 359, 1-(4-(6-chloro-8-fluoro-7-(6-fluoro-3-methyl-1H-indazol-7-yl)quinazolin-4-yl)piperazin-1-yl)prop-2-en-1-one] | ++++ (++++ indicates binding activity greater than 75%)
C=CC(=O)N1CCN(c2nc(NC3CCN(C)CC3)nc3c(F)c(-c4c(C)ccc5[nH]ncc45)c(Cl)cc23)CC1 [Compound 363, 1-(4-(6-chloro-8-fluoro-7-(5-methyl-1H-indazol-4-yl)-2-(1-methylpiperidin-4-ylamino)quinazolin-4-yl)piperazin-1-yl)prop-2-en-1-one] | ++++ (++++ indicates binding activity greater than 75%)
C=CC(=O)N1CCN(c2nc(NC3CCOC3)nc3c(F)c(-c4c(C)ccc5[nH]ncc45)c(Cl)cc23)CC1 (centres unmarked) [Compound 347, 1-(4-(6-chloro-8-fluoro-7-(5-methyl-1H-indazol-4-yl)-2-(tetrahydrofuran-3-ylamino)quinazolin-4-yl)piperazin-1-yl)prop-2-en-1-one] | ++++ (++++ indicates binding activity greater than 75%)
C=CC(=O)N1CCN(c2nc(OCCN3CCCC3)nc3c(F)c(-c4c(C)ccc5[nH]ncc45)c(Cl)cc23)CC1 [Compound 358, 1-(4-(6-chloro-8-fluoro-7-(5-methyl-1H-indazol-4-yl)-2-(2-(pyrrolidin-1-yl)ethoxy)quinazolin-4-yl)piperazin-1-yl)prop-2-en-1-one] | ++++ (++++ indicates binding activity greater than 75%)
C=CC(=O)N1CCN(c2nc(OCCc3nccn3C)nc3c(F)c(-c4c(C)ccc5[nH]ncc45)c(Cl)cc23)CC1 [Compound 369, 1-(4-(6-chloro-8-fluoro-2-(2-(1-methyl-1H-imidazol-2-yl)ethoxy)-7-(5-methyl-1H-indazol-4-yl)quinazolin-4-yl)piperazin-1-yl)prop-2-en-1-one] | ++++ (++++ indicates binding activity greater than 75%)

Same assay, conditions: binding measured at 2 h (compounds 48-246)

Compound | Binding %
C=CC(=O)N1CCN(c2ncnc3cc(-c4ccc(F)cc4C(F)(F)F)c(Cl)cc23)CC1 [Compound 119, 1-(4-(6-chloro-7-(4-fluoro-2-(trifluoromethyl)phe-nyl)quinazolin-4-yl)piperazin-1-yl)prop-2-en-1-one] | +++ (+++ indicates binding activity greater than 50% and up to 75%)
C=CC(=O)N1CCN(c2nc(C)nc3cc(Cl)c(-c4ccc(Cl)cc4)cc23)CC1 [Compound 50, 1-(4-(7-chloro-6-(4-chlorophenyl)-2-methylquinazolin-4-yl)piperazin-1-yl)prop-2-en-1-one] | + (+ indicates binding activity from 5% to 25%)
C=CC(=O)N1CCN(c2ncnc3cc(N4CCCCC4)c(Cl)cc23)CC1 [Compound 80, 1-(4-(6-chloro-7-(piperidin-1-yl)quinazolin-4-yl)piperazin-1-yl)prop-2-en-1-one] | + (+ indicates binding activity from 5% to 25%)
C=CC(=O)N1CCN(c2cnnc3cc(-c4ccccc4F)c(Cl)cc23)CC1 [Compound 159, 1-(4-(6-chloro-7-(2-fluorophenyl)cinnolin-4-yl)piperazin-1-yl)prop-2-en-1-one] | +++ (+++ indicates binding activity greater than 50% and up to 75%)
C=CC(=O)N1CCN(c2ncnc3cc(-c4cc(O)c(F)cc4F)c(Cl)cc23)CC1 [Compound 206, 1-(4-(6-chloro-7-(2,4-difluoro-5-hydroxyphenyl)quinazolin-4-yl)piperazin-1-yl)prop-2-en-1-one] | +++ (+++ indicates binding activity greater than 50% and up to 75%)
